Consider 97 compounds from PubChem BioAssay AID624491 (Broad Institute, 2012).

The test system of the assay is D54 ERlucT glycosylation luciferase reporter, luminescence, 24 h. Kind of assay: N-linked glycosylation inhibitors, luciferase reporter, dose response, D54 ERlucT cells, luminescence, cherry-picks (AID 624491).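 Also: signal gain reflects blocked N-linked glycosylation of a luciferase reporter; actives raise luciferase signal so AC26 marks activators of the reporter.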

Regarding `COc1ccc(OC)c(-c2nnc3n2N=C(c2ccc(OC)c(OC)c2)CS3)c1`, the AC26 is 4160 nM.
For `C=CCOc1ccccc1C(=O)/C=C1/C(=O)Nc2ccccc21` the value was 3000 nM; for `Cc1cc2c(cc(C(=O)OCC(=O)NCc3ccco3)n2C)s1`, 198 nM; for `COc1ccc(Sc2nnc(Cc3ccccc3)c3ccccc23)cc1`, 2880 nM.
Under `Cc1cc(=O)oc2cc(OCC(=O)N3c4ccccc4CC3C)ccc12` (configuration not stated) stands 1090 nM; under `CC#CCN1c2ccccc2[C@]23C[C@@H](C(=O)OC)N(C(=O)c4cc(C)oc4C)C2=NC(C(=O)OC)=C(C(=O)OC)[C@H]13`, 1790 nM.
For `COc1ccc(S(=O)(=O)NCc2ccccn2)cc1NC(=O)c1ccccc1C` the value was 2690 nM; for `COc1cc(C2=NOC(C(=O)NCc3ccco3)C2)cc(OC)c1OC` (configuration not stated), 1030 nM.
With `CCOC(=O)c1c(NC(=O)CN2C(=O)NC3(CCCCC3C)C2=O)sc(C)c1CC` (configuration not stated), the AC26 was 6750 nM.
For `Nc1[nH]nc2nc(NCc3ccccc3)c3c(c12)CCN(Cc1ccccc1)C3` the value was 1030 nM; for `C[C@H]1CN([C@@H](C)CO)C(=O)Cc2cc(NC(=O)CCC(F)(F)F)ccc2O[C@H]1CN(C)S(=O)(=O)c1ccc(Cl)cc1`, 2260 nM; for `CCOC(=O)c1sc(Nc2nc(C)cc(C)n2)nc1C`, 949 nM.
Consider `CCc1nn2c(N(C)CCO)cc(C)nc2c1-c1ccc(F)cc1`, for which the AC26 was 12800 nM.
Under `Cc1ccc(/C=N/NC(=O)c2cc(-c3cccnc3)nc3ccccc23)cc1` stands 1250 nM.
For `COc1cccc(C(NC(C)=O)c2nc(-c3ccc(F)cc3OC)cs2)c1` (configuration not stated) the value was 105 nM.
For `COc1ccc(C(=O)/C=C2/C(=O)Nc3ccccc32)cc1OC`, the AC26 is 714 nM.
For `O=C(N/N=C/C(Br)=C/c1ccccc1)c1cc(-c2ccco2)[nH]n1`, the AC26 is 5350 nM.
With `COc1ccccc1NC(=O)/C=C/c1ccc2c(c1)OCO2`, the AC26 is 3780 nM.
For `NC(=O)/C=C/C(=O)Nc1ccc(Cl)cc1` the value was 15100 nM; for `Nc1c(N(CCC2=CCCCC2)C(=O)COc2ccc(F)cc2Cl)c(=O)[nH]c(=O)n1Cc1ccccc1`, 1070 nM; for `COc1ccc(C(C)(O)c2nc(-c3ccc(F)cc3OC)cs2)cc1` (configuration not stated), 5930 nM.
Regarding `COC(=O)Nc1nc(C)c(C(=O)c2ccccc2)s1`, the AC26 is 7950 nM.
For `COc1cc(-c2cc3nc(NCCc4ccncc4)ccn3n2)cc(OC)c1OC`, the AC26 was 798 nM.
Under `CN(C)CCc1cc2c(c3c1ccc1ccccc13)OCO2` stands 5320 nM.
Under `COc1cccc(/C=C2\SC(=S)N(CCC(=O)N3CCCCC3)C2=O)c1` stands 5770 nM; under `CCCOC(=O)c1[nH]c2c(c1C)C(=O)CC(c1cccs1)C2` (configuration not stated), 623 nM.
Under `O=C(NCCCN1CCOCC1)c1cc(-c2ccc(F)cc2)on1` stands 14000 nM.
For `CCc1ccc(N2C(=O)NC(=O)/C(=C\C=C\c3ccco3)C2=O)cc1`, the AC26 is 1280 nM.
Under `CCOc1ccc(S(=O)(=O)N2CCN=C2c2ccccc2)cc1` stands 3390 nM.
Under `COc1ccc(-c2ccnc(-c3ccncc3)n2)cc1` stands 1390 nM.
For `C=CCN=C(SCC(=O)c1ccc(Cl)cc1)c1c(O)n(C)c(=O)n(C)c1=O` the value was 2340 nM.
Consider `CCNc1nc(NC(C)(C)C)nc(SC(C(C)=O)C(C)=O)n1`, for which the AC26 is 208 nM.
In the case of `O=C(NO)c1ccc(OC(F)F)cc1`, the AC26 is 3430 nM.
Under `COC(=O)c1ccccc1-c1ccc(C(c2c(C)[nH][nH]c2=O)c2c(C)[nH][nH]c2=O)o1` stands 5960 nM; under `CN1/C(=C/C=C(/C#N)C(N)=O)C(C)(C)c2ccccc21`, 55.6 nM; under `CC(C)c1ccc(/C=N/NC(=O)c2ccccc2Cl)cc1`, 1910 nM.
For `Cc1ccc(C(=O)c2cc([N+](=O)[O-])ccc2N2CCOCC2)cc1C` the value was 168 nM.
Under `COc1ccc(C2=NOC(C(=O)NCc3ccco3)C2)cc1` (configuration not stated) stands 2400 nM; under `CCOC(=O)N/N=C/c1ccc(N(CC)CC)cc1O`, 2990 nM; under `Cc1ccc(CSc2ccc3nnc(-c4cccnc4)n3n2)cc1`, 1170 nM.
As to `COc1ccc(S(=O)(=O)N2CCCCC2)cc1NC(=O)c1[nH]c(C)c(C(C)=O)c1C`, the AC26 was 1630 nM.
For `CCCNS(=O)(=O)c1cccc(C(=O)OCc2cc(=O)oc3cc(OC)ccc23)c1` the value was 834 nM.
On to `CCNc1ccc(Br)cc(C(=O)/C=C/c2ccc(Cl)cc2)c1=O`, for which the AC26 was 6710 nM.
Under `COc1ccc(-c2nc(C(N)=O)c3[nH]c(=O)n(-c4cccc(Cl)c4)c3n2)cc1OC` stands 5880 nM; under `COc1cc(NC(=O)c2noc(C)c2[N+](=O)[O-])c(OC)cc1Cl`, 632 nM; under `CN(C1=C(NC(=O)c2ccc(Cl)cc2)C(=O)c2ccccc2C1=O)c1ccccc1`, 3410 nM.
Take `Nc1cccc2c1C(=O)N(C(=O)/C=C/c1ccc(F)cc1)C2=O`: the AC26 was 6790 nM.
Under `CC(=O)Nc1cccc(-c2ccnc3c2CC(C)(C(=O)NCCC(F)(F)F)O3)c1` (configuration not stated) stands 4320 nM; under `COc1cc(C#Cc2ccc3cc(CCCO)oc(=O)c3c2)cc(OC)c1`, 161 nM; under `COc1ccc(CC(=O)N(Cc2ccccc2)c2ccc(C)cc2)cc1OC`, 716 nM.
Under `Cc1ccnc(NC(=O)CN2C(=O)NC(C)(c3ccc4ccccc4c3)C2=O)c1` (configuration not stated) stands 11400 nM; under `Cc1ccc(S/C=C\C(=O)c2ccccc2)cc1`, 3170 nM; under `CN(C)S(=O)(=O)c1ccc(N2CCCC2)c(C(=O)Nc2nccs2)c1`, 549 nM.
Regarding `Cc1ccc(NC(=O)c2ncn(CCCNCc3ccccc3)n2)cc1C`, the AC26 is 800 nM.
For `CCOC(=O)C1CCN(c2c(N3CCN(Cc4ccccc4)CC3)c(=O)c2=O)CC1` the value was 1810 nM; for `N#Cc1c(N)n(CCc2ccc(F)cc2)c2nc3ccccc3nc12`, 1590 nM.
Regarding `CC(C)(C)S(=O)(=O)N1C[C@@H]2CC/C=C\C/C(c3ccccc3)=C\2[C@H]1CCO`, the AC26 is 1050 nM.
For `c1ccc(-c2cc(-c3nnc4n3N=C(c3ccc5ccccc5c3)CS4)[nH]n2)cc1` the value was 2110 nM; for `Cc1cc(NCCCn2ccnc2)n2nc(C)c(-c3ccccc3)c2n1`, 1170 nM; for `O=C(N/N=C/c1ccccn1)c1cc(-c2ccncc2)nc2ccccc12`, 499 nM.
For `CC(=O)c1cccc(Nc2cc(C)nc3c(C)cc(C)cc23)c1` the value was 4210 nM.
In the case of `O=C(NCCC1=CCCCC1)C1CCC(CNc2nc(=S)[nH]c3ccccc23)CC1` (configuration not stated), the AC26 is 3920 nM.
For `COc1ccc(NC(=O)c2nc(C)c(C3(C)CC(c4ccccc4)=NO3)s2)cc1` (configuration not stated), the AC26 was 4020 nM.
For `COc1cc(C2c3cc4c(cc3OC(Nc3ccc(C(=O)O)cc3)C2C)OCO4)cc(OC)c1OC` (configuration not stated) the value was 10700 nM.
With `O=C(Nc1cccc(NC(=O)c2cccs2)c1)c1ccc([N+](=O)[O-])o1`, the AC26 was 1820 nM.
For `COc1ccc(S(=O)(=O)NCc2ccccn2)cc1NC(=O)c1ccccc1F` the value was 1200 nM; for `COc1cc(/C=C/c2onc(C)c2[N+](=O)[O-])cc(OC)c1OC`, 864 nM.
For `CC(=O)Nc1ccc(CC(=O)NCCC(c2ccccc2)c2ccccc2)cc1` the value was 11300 nM; for `COc1ccc([C@@H]2[C@@H]3C(=O)N(C(C)(C)C)C(=O)[C@@H]3[C@]3(Cc4ccccc4)C(=O)N(c4cccc(Cl)c4)C(=O)N23)cc1`, 2990 nM.
For `CCn1c(=O)c([N+](=O)[O-])c(Cl)c2ccccc21`, the AC26 is 1390 nM.
Under `O=C(CCl)Nc1cc(S(=O)(=O)N2CCCCCC2)ccc1Cl` stands 441 nM; under `Cc1ccc(-n2nc(C)c(NC(=O)CCl)c2C)cc1C`, 653 nM.
Under `N#Cc1ccc(-c2cccs2)nc1SCc1cccnc1` stands 242 nM.
Under `O=C(Cc1ccc(-c2ccccc2)cc1)NCc1ccccc1` stands 27.8 nM; under `Cn1c(=O)n(C)c2cc(NC(=O)CCl)ccc21`, 2090 nM.
`Cc1cccn2c(=O)c3cc(C(=O)NCc4ccco4)c(=N)n(CCc4ccccc4)c3nc12`: the AC26 is 1170 nM.
For `O=C(NCc1cccs1)C1CCN(c2ccc(S(=O)(=O)N3CCOCC3)cc2Cl)CC1` the value was 646 nM.
Under `COc1ccc(NC(=O)c2cc3c(=O)n(C)c4ccccc4c3n2C)cc1OC` stands 2940 nM; under `CCc1nnc2n1N=C(c1ccc(OC)cc1)CS2`, 6840 nM; under `CNC(=O)c1cccn(Cc2cc(C(F)(F)F)cc(C(F)(F)F)c2)c1=O`, 16000 nM.
Under `CN(C)C(CNC(=O)CSc1nc2sc3c(c2c(=O)n1C)CCCC3)c1ccccc1` (configuration not stated) stands 387 nM; under `COCCNc1nc(NCc2ccccc2)nc2ccsc12`, 136 nM; under `COc1ccc(C2=NOC(COc3ccc4c(C)cc(=O)oc4c3)C2)c(OC)c1` (configuration not stated), 1070 nM.
In the case of `COc1cc(C(=O)NC2CCN(C)CC2)ccc1Nc1ncc2c(n1)N(CCc1ccccc1)CCC(=O)N2C`, the AC26 is 396 nM.
For `COc1ccc(S(=O)(=O)N2N=C(C)Oc3ccccc3C2=O)cc1` the value was 1250 nM; for `Cc1ccc(NC(=O)c2cc(S(=O)(=O)N(C)C)ccc2N2CCCC2)cc1S(=O)(=O)N(C)C`, 276 nM.
Under `CNc1ccc(/C=C/C(=O)c2cccc3ccccc23)cc1[N+](=O)[O-]` stands 2810 nM; under `O=C(Nc1ccccc1N1CCOCC1)c1ccc2nc[nH]c2c1`, 1130 nM; under `Cc1cc(C)cc(C(=O)N2CC(=O)Nc3ccccc32)c1`, 265 nM.
Turning to `CN1CCN(C(=O)/C=C/c2ccc([N+](=O)[O-])o2)CC1`, the AC26 is 3930 nM.
Under `Cc1ccc2nc(-c3ccc(SCC(=O)Nc4nnc(C)s4)nc3)[nH]c2c1` stands 4860 nM.
Consider `CCCNC(=O)c1ccccc1NC(=O)c1ccc2c(c1)NC(=O)C(C)S2` (configuration not stated), for which the AC26 is 1450 nM.
In the case of `COc1ccc(CC(=O)N/N=C/c2c(C)n(C)c3ccccc23)cc1OC`, the AC26 is 4460 nM.
For `COc1ccc(C(=O)/C=C2/C(=O)Nc3ccccc32)c(OC)c1` the value was 4070 nM; for `CCn1c2ccccc2c2cc(NC(=O)c3cc(OC)c(OC)c(OC)c3)ccc21`, 605 nM.
In the case of `N#Cc1cc2[nH]c3ccccc3c2[n+](-c2ccc([N+](=O)[O-])cc2)c1N`, the AC26 was 4410 nM.
For `NS(=O)(=O)c1cc(C(=O)NCCOc2ccccc2)c(Cl)cc1Cl` the value was 5620 nM.
